Experimental data published in patent publication US10981932B2, “Macrocyclic indole derivatives” (Bayer Aktiengesellschaft, priority 2016, dated 2021).
Structures can show the parent of a compound that is named as a salt. Where two headings read alike, the source gives them in different places.

Key:
SUDHL5 [1] = experiment: Anti-proliferative effect (CellTiter-Glo, 72 h), SUDHL5; format: cell-based; conditions: SUDHL5 cells, antiproliferation, median, read-out: Antiproli SUDHL5 [M] (median)
Summary of the method: (§1)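 Cells plated and incubated with compounds for 72 h at 37 °C, with a parallel day 0 reference plate for time-zero signal. Viability read by CellTiter-Glo luminescence after 10 min, measured identically on the day 0 and 72 h plates.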

SUDHL5 [2] = experiment: Induction of caspase-3/7 activity (Caspase-Glo 3/7), SUDHL5; format: cell-based; conditions: caspase-3/7 induction, SUDHL5 cells, 3 h treatment, median
Summary of the method: (§2)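 DLBCL lines SUDHL5 and SUDHL10 treated with compounds for 3 h at 37 °C; caspase-3/7 activity read by Caspase-Glo 3/7 luminescence. Medium-only background subtracted; EC50 fitted with bottom fixed at 1 and top fixed at the reference compound's maximal induction.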

A2780 = experiment: Anti-proliferative effect (CellTiter-Glo, 72 h), A2780; format: cell-based; conditions: A2780 cells, median, read-out: IC50 antiproliferation assay A2780 [M] (median)
Summary of the method: as §1

SUDHL10 [3] = experiment: Induction of caspase-3/7 activity (Caspase-Glo 3/7), SUDHL10; format: cell-based; conditions: caspase-3/7 induction, SUDHL10 cells, 3 h treatment, median
Summary of the method: as §2

SUDHL10 [4] = experiment: Anti-proliferative effect (CellTiter-Glo, 72 h), SUDHL10; format: cell-based; conditions: SUDHL10 cells, antiproliferation, median, read-out: Antiproli SUDHL10 [M] (median)
Summary of the method: as §1

SUDHL5 [5] = experiment: Induction of cytotoxicity (CellTiter-Glo, 5 h), SUDHL5
MCL-1 = MCL-1 (Homo sapiens, UniProt Q07820); experiment: Protein-protein interaction assay MCL-1/Noxa BH3 peptide (MCL-1 assay), TR-FRET; format: binding; conditions: MBP-MCL-1 / Noxa BH3-derived peptide, median
Summary of the method: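 IC50 came from a 4-parameter fit of the normalized 665/620 nm TR-FRET ratio (anti-MBP Eu-cryptate/streptavidin-XL665). Compounds (0.1 nM–20 μM, duplicates) were preincubated 10 min at 22 °C with 1 nM MBP-MCL-1 in pH 7 Tris/NaCl/KF buffer, then read after 1 h at 22 °C plus overnight at 4 °C.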

SUDHL10 [6] = experiment: Induction of cytotoxicity (CellTiter-Glo, 5 h), SUDHL10
[7] = read-out: Cytotox SUDHL5 [M] (median), SUDHL5 cells, cytotoxicity induction, CellTiter-Glo, 5 h incubation, median
[8] = read-out: Cytotox SUDHL10 [M] (median), SUDHL10 cells, cytotoxicity induction, CellTiter-Glo, 5 h incubation, median
[9] = read-out: Cytotox SUDHL5 [M] (median), SUDHL5 cells, cytotoxicity induction, CellTiter-Glo, 5 h, median
[10] = read-out: Cytotox SUDHL10 [M] (median), SUDHL10 cells, cytotoxicity induction, CellTiter-Glo, 5 h, median

Sequence of MCL-1 (Q07820 whole entry): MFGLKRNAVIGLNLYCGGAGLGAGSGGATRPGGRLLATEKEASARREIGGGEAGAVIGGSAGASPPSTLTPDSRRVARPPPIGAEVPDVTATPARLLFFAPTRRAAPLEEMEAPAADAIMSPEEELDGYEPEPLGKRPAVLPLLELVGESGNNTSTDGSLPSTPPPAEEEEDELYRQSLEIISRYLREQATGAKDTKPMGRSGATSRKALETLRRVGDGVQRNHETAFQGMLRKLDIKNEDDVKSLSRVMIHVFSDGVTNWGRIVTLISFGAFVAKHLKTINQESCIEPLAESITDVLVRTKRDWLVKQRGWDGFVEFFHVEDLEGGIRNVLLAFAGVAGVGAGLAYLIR

SMILES	IC50 (SUDHL5 [1]; 72 h incubation) [M]	EC50 (SUDHL5 [2]) [µM]	IC50 (A2780) [M]	EC50 (SUDHL10 [3]) [µM]	IC50 (SUDHL10 [4]; 72 h incubation) [M]	IC50 (MCL-1) [µM]	IC50 (SUDHL5 [1]; 72 h) [M]	IC50 (SUDHL10 [4]; 72 h) [M]	IC50 (SUDHL5 [1]; Homo sapiens, SU-DHL-5, 72 h, 72 h) [M]	EC50 (SUDHL5 [2]; Homo sapiens, SU-DHL-5, 3 h) [µM]	IC50 (A2780; Homo sapiens, A2780, 72 h) [M]	EC50 (SUDHL10 [3]; Homo sapiens, SU-DHL10, 3 h) [µM]	IC50 (SUDHL10 [4]; Homo sapiens, SU-DHL10, 72 h, 72 h) [M]	IC50 (SUDHL5 [5]; [7]) [M]	IC50 (SUDHL10 [6]; [8]) [M]	IC50 (SUDHL5 [5]; [9]) [M]	IC50 (SUDHL10 [6]; [10]) [M]	IC50 (SUDHL5 [5]; Homo sapiens, SU-DHL-5, 5 h, read-out: Cytotox SUDHL5 [M] (median), SUDHL5 cells, cytotoxicity induction, CellTiter-Glo, 5 h, median)	IC50 (SUDHL10 [6]; Homo sapiens, SU-DHL10, 5 h, read-out: Cytotox SUDHL10 [M] (median), SUDHL10 cells, cytotoxicity induction, CellTiter-Glo, 5 h, median)
COc1ccc(OCc2nn(C)c3c2-c2cccc4c(CCCOc5cccc6ccccc56)c(C(=O)O)n(c24)CCCCOC3)cc1 (single isomer, unassigned; enantiomer 2) [Example 321, 3-[(4-methoxyphenoxy)methyl]-1-methyl-7-[3(naphthalen-1 yloxy)propyl]-1,10,11,12,13,15-hexahydropyrazolo[4′,3′:9,10][1,6]oxazacycloundecino[8,7,6-hi]indole-8-carboxylic acid-N-ethylethanamine Salt (Enantiomer 2)]		30.3	1e-05	> 33		0.639	1.22e-05	4.61e-06								2.97e-05	2.56e-05		
Cn1nc(COc2ccc(NS(C)(=O)=O)cc2)c2c1COCCCCn1c(C(=O)O)c(CCCOc3cccc4ccccc34)c3cccc-2c31 (single isomer, unassigned; enantiomer 2) [Example 323, 1-methyl-3-({4-[(methylsulfonyl)amino]phenoxy}methyl)-7-[3-(naphthalen-1-yloxy)propyl]-1,10,11,12,13,15-hexahydropyrazolo[4′,3′:9,10][1,6]oxazacycloundecino[8,7,6-hi]indole-8-carboxylic acid-N-ethylethanamine Salt (Enantiomer 2)]		> 33	2.18e-05	> 33		0.32	1.32e-05	1.36e-05								> 3.3e-05	> 3.3e-05		
Cn1nc(CN2CCCC2=O)c2c1COCCCCn1c(C(=O)O)c(CCCOc3cccc4ccccc34)c3cccc-2c31 (single isomer, unassigned; enantiomer 2) [Example 329, 1-methyl-7-[3-(naphthalen-1-yloxy)propyl]-3-[(2-oxopyrrolidin-1-yl)methyl]-1,10,11,12,13,15-hexahydropyrazolo[4′,3′:9,10][1,6]oxazacycloundecino[8,7,6-hi]indole-8-carboxylic Acid (Enantiomer 2)]						3			> 3.3e-05	> 33	> 3.3e-05	> 33	> 3.3e-05					> 3.3e-05	> 3.3e-05
Cn1nc(CN2CCCC2)c2c1COCCCCn1c(C(=O)O)c(CCCOc3cccc4ccccc34)c3cccc-2c31 (single isomer, unassigned; enantiomer 2) [Example 337, 1-methyl-7-[3-(naphthalen-1-yloxy)propyl]-3-(pyrrolidin-1-ylmethyl)-1,10,11,12,13,15-hexahydropyrazolo[4′3′:9,10][1,6]oxazacycloundecino[8,7,6-hi]indole-carboxylic Acid (Enantiomer 2)]		> 33	> 3.3e-05	> 33		0.977	1.97e-05	> 3.3e-05								> 3.3e-05	> 3.3e-05		
CC(=O)NCc1nn(C)c2c1-c1cccc3c(CCCOc4cccc5ccccc45)c(C(=O)O)n(c13)CCCCOC2 (single isomer, unassigned; enantiomer 2) [Example 341, 3-[(acetylamino)methyl]-1-methyl-7-[3-(naphthalen-1-yloxy)propyl]-1,10,11,12,13,15-hexahydropyrazolo[4′3′:9,10][1,6]oxazacycloundecino[8,7,6-hi]indole-cararboxylic Acid (Enantiomer 2)]		> 33	> 3.3e-05	> 33		0.651	6.48e-06	> 3.3e-05								2.64e-05	> 3.3e-05		

The next compounds have a lower IC50 (MCL-1) than those just listed; values first:

IC50 (SUDHL5 [1]; 72 h incubation) [M]	EC50 (SUDHL5 [2]) [µM]	IC50 (A2780) [M]	EC50 (SUDHL10 [3]) [µM]	IC50 (SUDHL10 [4]; 72 h incubation) [M]	IC50 (MCL-1) [µM]	IC50 (SUDHL5 [1]; 72 h) [M]	IC50 (SUDHL10 [4]; 72 h) [M]	IC50 (SUDHL5 [1]; Homo sapiens, SU-DHL-5, 72 h, 72 h) [M]	EC50 (SUDHL5 [2]; Homo sapiens, SU-DHL-5, 3 h) [µM]	IC50 (A2780; Homo sapiens, A2780, 72 h) [M]	EC50 (SUDHL10 [3]; Homo sapiens, SU-DHL10, 3 h) [µM]	IC50 (SUDHL10 [4]; Homo sapiens, SU-DHL10, 72 h, 72 h) [M]	SMILES	IC50 (SUDHL5 [5]; [7]) [M]	IC50 (SUDHL10 [6]; [8]) [M]	IC50 (SUDHL5 [5]; [9]) [M]	IC50 (SUDHL10 [6]; [10]) [M]	IC50 (SUDHL5 [5]; Homo sapiens, SU-DHL-5, 5 h, read-out: Cytotox SUDHL5 [M] (median), SUDHL5 cells, cytotoxicity induction, CellTiter-Glo, 5 h, median)	IC50 (SUDHL10 [6]; Homo sapiens, SU-DHL10, 5 h, read-out: Cytotox SUDHL10 [M] (median), SUDHL10 cells, cytotoxicity induction, CellTiter-Glo, 5 h, median)
1.09e-05	> 33	1.78e-05	> 33	2.01e-05	0.142								CCCc1nn(C)c2c1-c1c(C)ccc3c(CCCOc4cccc5ccccc45)c(C(=O)O)n(c13)CCCCOC2 (single isomer, unassigned; enantiomer 2) [Example 189, 1,4-dimethyl-7-[3-(naphthalen-1-yloxy)propyl]-3-propyl-1,10,11,12,13,15-hexahydropyrazolo[4′3′:9,10][1,6]oxazacycloundecino[8,7,6-hi]indole-8-caboxylic acid-N-ethylethanamine Salt (Enantiomer 2)]	2.86e-05	> 3.3e-05				
2.03e-05	> 33	1.8e-05	> 33	9.22e-06	0.123								Cc1c2c(nn1C)CCCCCCn1c(C(=O)O)c(CCCOc3cccc4ccccc34)c3cccc-2c31 (single isomer, unassigned; enantiomer 2) [Example 192, 2,3-dimethyl-7-[3-(1-naphthyloxy)propyl]-10,11,12,13,14,15-hexahydro-2H-pyrazolo[4′,3′:4,5]azacycloundecino[3,2,1-hi]indole-8-carboxylic acid-N-ethylethanamine Salt (Enantiomer 2)]	> 3.3e-05	> 3.3e-05				
1.78e-05	28.7	1.49e-05	> 33	8.15e-06	0.104								CCCc1nn(C)c2c1-c1c(C)ccc3c(CCCOc4cccc5ccccc45)c(C(=O)O)n(c13)CCCN(C)C2 (single isomer, unassigned; enantiomer 2) [Example 197, 7,9,12-trimethyl-1-[3-(naphthalen-1-yloxy)propyl]-1-propyl-4,5,6,7,8,9-hexahydropyrazolo[3′,4′:7,8][1,5]diazecino[9,10,1-hi]indole-2-carboxylic acid-N-ethylethanamine Salt (Enantiomer 2)]	1.93e-05	1.55e-05				
	> 33	3.12e-05	> 33		0.103	2.48e-05	1.3e-05						Cn1nc(CN2CCCCC2=O)c2c1COCCCCn1c(C(=O)O)c(CCCOc3cccc4ccccc34)c3cccc-2c31 (single isomer, unassigned; enantiomer 2) [Example 327, 1-methyl-7-[3-(naphthalen-1-yloxy)propyl]-3-[(2-oxopiperidin-1-yl)methyl]-1,10,11,12,13,15-hexahydropyrazolo[4′,3′:9,10][1,6]oxazacycloundecino[8,7,6-hi]indole-8-carboxylic Acid (Enantiomer 2)]			> 3.3e-05	> 3.3e-05		
5.84e-06	> 33	1.27e-05	> 33	1.32e-05	0.0532								Cn1nc2c(c1C(F)(F)F)-c1cccc3c(CCCOc4cccc5ccccc45)c(C(=O)O)n(c13)CCCCOC2 (single isomer, unassigned; enantiomer 2) [Example 195, 2-methyl-7-[3-(naphthalen-1-yloxy)propyl]-3-(trifluoromethyl)-2,10,11,12,13,15-hexahydropyrazolo[4′,3′:9,10][1,6]oxazacycloundecino[8,7,6-hi]indole-8-carboxylic Acid (Enantiomer 2)]	> 3.3e-05	> 3.3e-05				
1.87e-05	> 33	2.57e-05	18.8	1.12e-05	0.0248								CCc1nn(CCN2CCOCC2)c2c1-c1cccc3c(CCCOc4cccc5ccccc45)c(C(=O)O)n(c13)CCCCOC2 (single isomer, unassigned; enantiomer 2) [Example 200, 3-ethyl-1-[2-(morpholin-4-yl)ethyl]-7-[3-(naphthalen-1-yloxy)propyl]-1,10,11,12,13,15-hexahydropyrazolo[4′3′:9,10][1,6]oxazacycloundecino[8,7,6-hi]indole-carboxylic Acid (Enantiomer 2)]	2.41e-05	1.99e-05				
